Results published in publication PMC7402526, “An in vitro quantitative systems pharmacology approach for deconvolving mechanisms of drug-induced, multilineage cytopenias” (PLoS Computational Biology, 2020).

Tests used:
[1] = test system: MK cells (MK-lin); assay: MLTA, MK: concentration-response and QSP model fit; type: cell-based, human; settings: Homo sapiens, 144 h
Method in brief: (§1)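 Values derive from fitting a QSP Emax model (EmaxT 0–2, above 1 denoting added cell killing) to vehicle-normalized lineage counts. Counts were obtained by 17-parameter flow after 6-day culture of human bone marrow CD34+ cells with test article.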

[2] = test system: total viable cells (totalViableCells); assay: MLTA, total live cells concentration-response; type: cell-based; settings: Homo sapiens, 144 h, 6 days, normalized to vehicle control, read-out: total_live normalized cell count
Method in brief: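 Freeze-thawed primary human bone marrow CD34+ cells in SFEM II with cytokine cocktail, drug added day 0, 6 days at 37°C, 5% CO2. Live/dead counts by 17-parameter flow cytometry with DAPI exclusion, bead-normalized, volume-corrected to cells/mL. Normalized per donor to mean of six vehicle wells; 2–7 donors pooled.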

[3] = test system: granulocyte-macrophage progenitor (GMPs); assay: MLTA, GMPs: concentration-response and QSP model fit; type: cell-based, human; settings: Homo sapiens, 144 h
Method in brief: as §1

[4] = test system: granulocytes (Gran-lin); assay: MLTA, Gran: concentration-response and QSP model fit; type: cell-based, human; settings: Homo sapiens, 144 h
Method in brief: (§2)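 Parameters come from fitting an Emax-based QSP model, with L1 regularization and Emax ranging 0–2, to vehicle-normalized, bead-corrected flow cytometry counts. Counts came from human bone marrow CD34+ cells treated from day 0 through a 6-day multi-lineage cytokine culture in SFEM II, using 2–7 donors per drug.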

[5] = test system: B cells (B-lin); assay: MLTA, B-lin: concentration-response and QSP model fit; type: cell-based, human; settings: Homo sapiens, B-cell, 144 h
Method in brief: as §1

[6] = test system: multi-potent progenitors (MPPs); assay: MLTA, MPPs: concentration-response and QSP model fit; type: cell-based, human; settings: Homo sapiens, 144 h
Method in brief: as §1

[7] = test system: lymphocyte progenitors (LymP); assay: MLTA, LymP: concentration-response and QSP model fit; type: cell-based, human; settings: Homo sapiens, Lymphocyte, 144 h
Method in brief: as §1

[8] = test system: granulocyte progenitor (Gran-lin prog); assay: MLTA, GranP: concentration-response and QSP model fit; type: cell-based, human; settings: Homo sapiens, 144 h
Method in brief: as §2

[9] = QSP model fit of 6-day MLTA data

SMILES: CN(C)C(=O)c1cc2cnc(Nc3ccc(N4CCNCC4)cn3)nc2n1C1CCCC1 [ribociclib]
- EC50 [1, 9]: 2040 nM
- activity at 0.0002 µM ([1]; dose 0.2 nM, 6 days, normalized to vehicle control, read-out: MK normalized cell count): 102%
- activity at 0.001 µM ([1]; dose 1 nM, 6 days, normalized to vehicle control, read-out: MK normalized cell count): 98.3%
- activity at 0.005 µM ([1]; dose 5 nM, 6 days, normalized to vehicle control, read-out: MK normalized cell count): 91.7%
- activity at 0.025 µM ([1]; dose 25 nM, 6 days, normalized to vehicle control, read-out: MK normalized cell count): 83.6%
- activity at 0.1 µM ([1]; dose 100 nM, 6 days, normalized to vehicle control, read-out: MK normalized cell count): 101%
- activity at 0.5 µM ([1]; dose 500 nM, 6 days, normalized to vehicle control, read-out: MK normalized cell count): 64.4%
- activity at 2.5 µM ([1]; dose 2500 nM, 6 days, normalized to vehicle control, read-out: MK normalized cell count): 27.7%
- Emax ([1]; parameter from QSP model fitting, read-out: Emax_drug_MK): 4.81%
- viability at 0.0002 µM ([2]; dose 0.2 nM): 90%
- viability at 0.001 µM ([2]; dose 1 nM): 97.8%
- viability at 0.005 µM ([2]; dose 5 nM): 106%
- viability at 0.025 µM ([2]; dose 25 nM): 79.4%
- viability at 0.1 µM ([2]; dose 100 nM): 66.6%
- viability at 0.5 µM ([2]; dose 500 nM): 42.1%
- viability at 2.5 µM ([2]; dose 2500 nM): 17.8%
- EC50 [3, 9]: 141 nM
- activity at 0.0002 µM ([3]; dose 0.2 nM, 6 days, normalized to vehicle control, read-out: GMPs normalized cell count): 91.2%
- activity at 0.001 µM ([3]; dose 1 nM, 6 days, normalized to vehicle control, read-out: GMPs normalized cell count): 92.5%
- activity at 0.005 µM ([3]; dose 5 nM, 6 days, normalized to vehicle control, read-out: GMPs normalized cell count): 103%
- activity at 0.025 µM ([3]; dose 25 nM, 6 days, normalized to vehicle control, read-out: GMPs normalized cell count): 85%
- activity at 0.1 µM ([3]; dose 100 nM, 6 days, normalized to vehicle control, read-out: GMPs normalized cell count): 73.4%
- activity at 0.5 µM ([3]; dose 500 nM, 6 days, normalized to vehicle control, read-out: GMPs normalized cell count): 54.4%
- activity at 2.5 µM ([3]; dose 2500 nM, 6 days, normalized to vehicle control, read-out: GMPs normalized cell count): 29.5%
- activity at 0.0002 µM ([4]; dose 0.2 nM, 6 days, normalized to vehicle control, read-out: Gran normalized cell count): 92.9%
- activity at 0.001 µM ([4]; dose 1 nM, 6 days, normalized to vehicle control, read-out: Gran normalized cell count): 98.1%
- activity at 0.005 µM ([4]; dose 5 nM, 6 days, normalized to vehicle control, read-out: Gran normalized cell count): 109%
- activity at 0.025 µM ([4]; dose 25 nM, 6 days, normalized to vehicle control, read-out: Gran normalized cell count): 74.6%
- activity at 0.1 µM ([4]; dose 100 nM, 6 days, normalized to vehicle control, read-out: Gran normalized cell count): 50.7%
- activity at 0.5 µM ([4]; dose 500 nM, 6 days, normalized to vehicle control, read-out: Gran normalized cell count): 23.7%
- activity at 2.5 µM ([4]; dose 2500 nM, 6 days, normalized to vehicle control, read-out: Gran normalized cell count): 6.7%
- Emax ([4]; parameter from QSP model fitting, read-out: Emax_drug_Gran): 0.0359%
- EC50 [5, 9]: 35.8 nM
- activity at 0.0002 µM ([5]; dose 0.2 nM, 6 days, normalized to vehicle control, read-out: B-lin normalized cell count): 74.3%
- activity at 0.001 µM ([5]; dose 1 nM, 6 days, normalized to vehicle control, read-out: B-lin normalized cell count): 107%
- activity at 0.005 µM ([5]; dose 5 nM, 6 days, normalized to vehicle control, read-out: B-lin normalized cell count): 79.4%
- activity at 0.025 µM ([5]; dose 25 nM, 6 days, normalized to vehicle control, read-out: B-lin normalized cell count): 61.2%
- activity at 0.1 µM ([5]; dose 100 nM, 6 days, normalized to vehicle control, read-out: B-lin normalized cell count): 46.3%
- activity at 0.5 µM ([5]; dose 500 nM, 6 days, normalized to vehicle control, read-out: B-lin normalized cell count): 28%
- activity at 2.5 µM ([5]; dose 2500 nM, 6 days, normalized to vehicle control, read-out: B-lin normalized cell count): 28.3%
- Emax ([5]; parameter from QSP model fitting, read-out: Emax_drug_B): 30.5%
- activity at 0.0002 µM ([6]; dose 0.2 nM, 6 days, normalized to vehicle control, read-out: MPPs normalized cell count): 81.4%
- activity at 0.001 µM ([6]; dose 1 nM, 6 days, normalized to vehicle control, read-out: MPPs normalized cell count): 91.9%
- activity at 0.005 µM ([6]; dose 5 nM, 6 days, normalized to vehicle control, read-out: MPPs normalized cell count): 83.8%
- activity at 0.025 µM ([6]; dose 25 nM, 6 days, normalized to vehicle control, read-out: MPPs normalized cell count): 63.7%
- activity at 0.1 µM ([6]; dose 100 nM, 6 days, normalized to vehicle control, read-out: MPPs normalized cell count): 46.9%
- activity at 0.5 µM ([6]; dose 500 nM, 6 days, normalized to vehicle control, read-out: MPPs normalized cell count): 28.4%
- activity at 2.5 µM ([6]; dose 2500 nM, 6 days, normalized to vehicle control, read-out: MPPs normalized cell count): 16.9%
- Emax ([6]; parameter from QSP model fitting, read-out: Emax_drug_MPP): 0.0237%
- activity at 0.0002 µM ([7]; dose 0.2 nM, 6 days, normalized to vehicle control, read-out: LymP normalized cell count): 87.8%
- activity at 0.001 µM ([7]; dose 1 nM, 6 days, normalized to vehicle control, read-out: LymP normalized cell count): 95.2%
- activity at 0.005 µM ([7]; dose 5 nM, 6 days, normalized to vehicle control, read-out: LymP normalized cell count): 100%
- activity at 0.025 µM ([7]; dose 25 nM, 6 days, normalized to vehicle control, read-out: LymP normalized cell count): 61.7%
- activity at 0.1 µM ([7]; dose 100 nM, 6 days, normalized to vehicle control, read-out: LymP normalized cell count): 39.1%
- activity at 0.5 µM ([7]; dose 500 nM, 6 days, normalized to vehicle control, read-out: LymP normalized cell count): 17.4%
- activity at 2.5 µM ([7]; dose 2500 nM, 6 days, normalized to vehicle control, read-out: LymP normalized cell count): 4.31%
- Emax ([7]; parameter from QSP model fitting, read-out: Emax_drug_LymP): 0.032%
- EC50 ([8]; QSP model fit of 6-day MLTA data, read-out: EC50GranP): 21.4 nM
- activity at 0.0002 µM ([8]; dose 0.2 nM, 6 days, normalized to vehicle control, read-out: GranPs normalized cell count): 87.1%
- activity at 0.001 µM ([8]; dose 1 nM, 6 days, normalized to vehicle control, read-out: GranPs normalized cell count): 105%
- activity at 0.005 µM ([8]; dose 5 nM, 6 days, normalized to vehicle control, read-out: GranPs normalized cell count): 104%
- activity at 0.025 µM ([8]; dose 25 nM, 6 days, normalized to vehicle control, read-out: GranPs normalized cell count): 81.3%
- activity at 0.1 µM ([8]; dose 100 nM, 6 days, normalized to vehicle control, read-out: GranPs normalized cell count): 70.3%
- activity at 0.5 µM ([8]; dose 500 nM, 6 days, normalized to vehicle control, read-out: GranPs normalized cell count): 34.4%
- activity at 2.5 µM ([8]; dose 2500 nM, 6 days, normalized to vehicle control, read-out: GranPs normalized cell count): 10.8%
- Emax ([8]; parameter from QSP model fitting, read-out: Emax_drug_GranP): 6.43%
